Results reported in patent publication US20240150293A1, “SPIROCYCLOHEXANE DERIVATIVES, PHARMACEUTICAL COMPOSITIONS CONTAINING THEM AND THEIR USES AS ANTI-APOPTOTIC INHIBITORS” (LES LABORATOIRES SERVIER, priority 2021, published 2024).

Molecular target: Mcl-1 protein (UniProtKB Q07820) (Homo sapiens (Human), UniProt Q07820)
Assay: Inhibition of Mcl-1 by the fluorescence polarisation assay (Example A, Method A)
Format: binding
Conditions: fluorescence polarization assay
Outline: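 Protein (5 nM) and fluorescein-tagged peptide tracer (1 nM) incubated with 11-point compound series for 2 h at room temperature in HEPES/NaCl/Tween 20 buffer, pH 7.4, 5% DMSO. Displacement read as decrease in polarisation; IC50 fitted by 4-parameter logistic, converted to Ki (cKi or eKi).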

Mcl-1 protein, sequence (Q07820 whole entry): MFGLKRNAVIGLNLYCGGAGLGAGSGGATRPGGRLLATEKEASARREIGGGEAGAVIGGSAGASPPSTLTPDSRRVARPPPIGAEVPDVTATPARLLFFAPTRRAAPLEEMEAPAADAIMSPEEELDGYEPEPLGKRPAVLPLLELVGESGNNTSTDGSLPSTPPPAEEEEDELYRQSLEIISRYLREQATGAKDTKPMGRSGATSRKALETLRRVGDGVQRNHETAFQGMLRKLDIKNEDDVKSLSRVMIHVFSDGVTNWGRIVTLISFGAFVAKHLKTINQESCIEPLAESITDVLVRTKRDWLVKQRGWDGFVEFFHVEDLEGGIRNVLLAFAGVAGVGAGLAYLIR

| SMILES | Ki [µM] |
| --- | --- |
| O=C(O)[C@]1(Nc2cccc(Cl)c2)CC[C@]2(CC1)C(c1ccc(-c3ccccc3)o1)=Cc1ccccc12 [Example 317, (1s,4s)-4-(3-chloroanilino)-2′-(5-phenylfuran-2-yl)spiro[cyclohexane-1,1′-indene]-4-carboxylic acid] | 0.942 |
| COc1ccc(C2Cc3ccccc3[C@]23CC[C@@](Nc2cccc(Cl)c2)(C(=O)O)CC3)c(Cl)c1 (single isomer, unassigned) [Example 268, (1r,4r)-4-(3-chloroanilino)-2′-(2-chloro-4-methoxyphenyl)-2′,3′-dihydrospiro[cyclohexane-1,1′-indene]-4-carboxylic acid] | 1.02 |
| O=C(O)[C@]1(Nc2cccc(Cl)c2)CC[C@@]2(CC1)c1ccccc1CC2c1cccc2c1OCC2 (single isomer, unassigned) [Example 295, (1r,4r)-4-(3-chloroanilino)-2′-(2,3-dihydro-1-benzofuran-7-yl)-2′,3′-dihydrospiro[cyclohexane-1,1′-indene]-4-carboxylic acid] | 0.643 |
| O=C(O)[C@]1(Nc2cccc(Cl)c2)CC[C@@]2(CC1)c1ccccc1CC2CCCOc1ccnc2c1CCC2O (stereo partly drawn) [Example 475, (1r,4r)-4-(3-chloroanilino)-2′-{3-[(7-hydroxy-6,7-dihydro-5H-cyclopenta[b]pyridin-4-yl)oxy]propyl}-2′,3′-dihydrospiro[cyclohexane-1,1′-indene]-4-carboxylic acid] | 0.0992 |
| O=C(O)[C@]1(Nc2cccc(Cl)c2)CC[C@@]2(CC1)c1ccccc1CC2[C@H]1C[C@@H]1COc1ccnc2ccsc12 (single isomer, unassigned) [Example 103, (1r,4r)-4-(3-chloroanilino)-2′-[(1R*,2S*)-2-{[(thieno[3,2-b]pyridin-7-yl)oxy]methyl}cyclopropyl]-2′,3′-dihydrospiro[cyclohexane-1,1′-indene]-4-carboxylic acid] | 0.214 |
| COc1ccc([C@H]2Cc3ccccc3[C@]23CC[C@@](Nc2cccc(Cl)c2)(C(=O)O)CC3)cc1 [Example 241, (1r,2′R,4R)-4-(3-chloroanilino)-2′-(4-methoxyphenyl)-2′,3′-dihydrospiro[cyclohexane-1,1′-indene]-4-carboxylic acid] | 4.35 |
| O=C(O)[C@]1(Nc2cccc(Cl)c2)CC[C@@]2(CC1)c1ccccc1CC2[C@H]1C[C@@H]1COc1ccnc2ccsc12 (single isomer, unassigned) [Example 106, (1r,4r)-4-(3-chloroanilino)-2′-[(1R*,2S*)-2-{[(thieno[3,2-b]pyridin-7-yl)oxy]methyl}cyclopropyl]-2′,3′-dihydrospiro[cyclohexane-1,1′-indene]-4-carboxylic acid] | 2.26 |
| COc1ccc2c(c1)[C@]1(CC[C@@](Nc3cccc(Br)c3)(C(=O)O)CC1)C(Cc1ccccc1)C2 (stereo partly drawn) [Example 127, (1r,4r)-2′-benzyl-4-(3-bromoanilino)-6′-methoxy-2′,3′-dihydrospiro[cyclohexane-1,1′-indene]-4-carboxylic acid] | 2.82 |
| O=C(O)[C@]1(Nc2cccc(Cl)c2)CC[C@@]2(CC1)c1ccccc1C[C@H]2C1CCC1 [Example 100, (1r,2′S,4S)-4-(3-chloroanilino)-2′-cyclobutyl-2′,3′-dihydrospiro[cyclohexane-1,1′-indene]-4-carboxylic acid] | 2.62 |
| COc1cccc(C2Cc3ccccc3[C@]23CC[C@@](Nc2cccc(Cl)c2)(C(=O)O)CC3)c1 (single isomer, unassigned) [Example 272, (1r,4r)-4-(3-chloroanilino)-2′-(3-methoxyphenyl)-2′,3′-dihydrospiro[cyclohexane-1,1′-indene]-4-carboxylic acid] | 0.127 |
| O=C(O)[C@]1(Nc2cccc(Cl)c2)CC[C@@]2(CC1)c1ccccc1CC2CCCOc1cncnc1 (stereo partly drawn) [Example 450, (1r,4r)-4-(3-chloroanilino)-2′-{3-[(pyrimidin-5-yl)oxy]propyl}-2′,3′-dihydrospiro[cyclohexane-1,1′-indene]-4-carboxylic acid] | 0.781 |
| O=C(O)[C@]1(Nc2cc(Cl)cc(Cl)c2)CC[C@@]2(CCCc3ccccc32)CC1 [Example 120, (1r,4s)-4-[(3,5-dichlorophenyl)amino]-3′,4′-dihydro-2′H-spiro[cyclohexane-1,1′-naphthalene]-4-carboxylic acid] | 19.3 |
| O=C(O)[C@]1(Nc2cccc(Cl)c2)CC[C@@]2(CC1)c1ccccc1CC2CCCOC1CCOCC1 (stereo partly drawn) [Example 467, (1r,4r)-4-(3-chloroanilino)-2′-{3-[(oxan-4-yl)oxy]propyl}-2′,3′-dihydrospiro[cyclohexane-1,1′-indene]-4-carboxylic acid] | 0.746 |
| O=C(O)[C@]1(Nc2cccc(Cl)c2)CC[C@]2(CC1)C(c1cccc(OCc3ccccc3)c1)=Cc1ccccc12 [Example 302, (1s,4s)-2′-[3-(benzyloxy)phenyl]-4-(3-chloroanilino)spiro[cyclohexane-1,1′-indene]-4-carboxylic acid] | 1.51 |
| C[C@@H](COc1ccnc(CO)c1)C[C@H]1Cc2ccccc2[C@]12CC[C@@](Nc1cccc(Cl)c1)(C(=O)O)CC2 [Example 579, (1r,2′S,4S)-4-(3-chloroanilino)-2′-[(2R)-3-{[2-(hydroxymethyl)pyridin-4-yl]oxy}-2-methylpropyl]-2′,3′-dihydrospiro[cyclohexane-1,1′-indene]-4-carboxylic acid] | 0.216 |
| O=C(O)[C@]1(Nc2cccc(Cl)c2)CC[C@@]2(CC1)c1ccccc1CC2CCCCc1ccccc1 (stereo partly drawn) [Example 394, (1r,4r)-4-(3-chloroanilino)-2′-(4-phenylbutyl)-2′,3′-dihydrospiro[cyclohexane-1,1′-indene]-4-carboxylic acid] | 0.134 |
| Cc1ccc(C2Cc3ccccc3[C@]23CC[C@@](Nc2cccc(Cl)c2)(C(=O)O)CC3)cc1 (single isomer, unassigned) [Example 306, (1r,4r)-4-(3-chloroanilino)-2′-(4-methylphenyl)-2′,3′-dihydrospiro[cyclohexane-1,1′-indene]-4-carboxylic acid] | 0.663 |
| O=C(O)[C@]1(Nc2cccc(Cl)c2)CC[C@@]2(CC1)c1ccccc1C[C@@H]2c1ccc(Oc2ccccc2)cc1 [Example 359, (1r,2′R,4R)-4-(3-chloroanilino)-2′-(4-phenoxyphenyl)-2′,3′-dihydrospiro[cyclohexane-1,1′-indene]-4-carboxylic acid] | 2.14 |
| O=C(O)[C@]1(Nc2cccc(Cl)c2)CC[C@]2(CC1)C(c1ccc(OCc3ccncc3)cc1)=Cc1ccccc12 [Example 349, (1s,4s)-4-(3-chloroanilino)-2′-{4-[(pyridin-4-yl)methoxy]phenyl}spiro[cyclohexane-1,1′-indene]-4-carboxylic acid] | 3.59 |

Next, values leading:

| Ki [µM] | SMILES |
| --- | --- |
| 0.259 | COc1cccc(C2=Cc3ccccc3[C@]23CC[C@@](Nc2cccc(Cl)c2)(C(=O)O)CC3)c1Cl [Example 267, (1s,4s)-4-(3-chloroanilino)-2′-(2-chloro-3-methoxyphenyl)spiro[cyclohexane-1,1′-indene]-4-carboxylic acid] |
| 0.889 | Cc1cccc(C2=Cc3ccccc3[C@]23CC[C@@](Nc2cccc(Cl)c2)(C(=O)O)CC3)c1 [Example 335, (1s,4s)-4-(3-chloroanilino)-2′-(3-methylphenyl)spiro[cyclohexane-1,1′-indene]-4-carboxylic acid] |
| 0.226 | O=C(O)C1(Nc2cccc(Br)c2)CCC2(CC1)c1ccccc1CC2CCCc1ccccc1 (single isomer, unassigned) [Example 150, (1r,4r)-4-(3-bromoanilino)-2′-(3-phenylpropyl)-2′,3′-dihydrospiro[cyclohexane-1,1′-indene]-4-carboxylic acid] |
| 1.69 | COc1ccc(C2=Cc3ccccc3[C@]23CC[C@@](Nc2cccc(Cl)c2)(C(=O)O)CC3)c(Cl)c1 [Example 251, (1s,4s)-4-(3-chloroanilino)-2′-(2-chloro-4-methoxyphenyl)spiro[cyclohexane-1,1′-indene]-4-carboxylic acid] |
| 10.7 | O=C(O)[C@]1(Nc2cccc(Cl)c2)CC[C@]2(CC1)C(C1CN(CC(F)(F)F)C1)=Cc1ccccc12 [Example 102, (1r,4r)-4-(3-chloroanilino)-2′-[1-(2,2,2-trifluoroethyl)azetidin-3-yl]spiro[cyclohexane-1,1′-indene]-4-carboxylic acid] |
| 12.1 | COc1ccc(N2C(=O)c3ccccc3[C@]23CC[C@@](Nc2cccc(Br)c2)(C(=O)O)CC3)cc1 [Example 33, (1s,4s)-4-(3-bromoanilino)-2′-(4-methoxyphenyl)-3′-oxo-2′,3′-dihydrospiro[cyclohexane-1,1′-isoindole]-4-carboxylic acid] |
| 0.0876 | O=C(O)[C@]1(Nc2cccc(Br)c2)CC[C@]2(CC1)C(Br)=Cc1ccccc12 [Example 78, (1s,4s)-2′-bromo-4-(3-bromoanilino)spiro[cyclohexane-1,1′-indene]-4-carboxylic acid] |
| 19.9 | CC1N(C)c2ccccc2[C@]12CC[C@@](Nc1cccc(Br)c1)(C(=O)O)CC2 (stereo partly drawn) [Example 24, (1s,4s)-4-(3-bromoanilino)-1′,2′-dimethyl-1′,2′-dihydrospiro[cyclohexane-1,3′-indole]-4-carboxylic acid] |
| 6.43 | CN1c2ccc(CCc3ccccc3)cc2[C@]2(CC[C@](Nc3cccc(Br)c3)(C(=O)O)CC2)C1=O [Example 11, (1r,4r)-4-(3-bromoanilino)-1′-methyl-2′-oxo-5′-(2-phenylethyl)-1′,2′-dihydrospiro[cyclohexane-1,3′-indole]-4-carboxylic acid] |
| 13.9 | COc1cccc(Cl)c1C1=Cc2ccccc2[C@]12CC[C@@](Nc1cccc(Cl)c1)(C(=O)O)CC2 [Example 250, (1s,4s)-4-(3-chloroanilino)-2′-(2-chloro-6-methoxyphenyl)spiro[cyclohexane-1,1′-indene]-4-carboxylic acid] |
| 0.265 | O=C(O)[C@]1(Nc2cccc(Cl)c2)CC[C@]2(CC1)C(Br)=Cc1ccc(F)cc12 [Example 139, (1s,4s)-2′-bromo-4-(3-chloroanilino)-6′-fluorospiro[cyclohexane-1,1′-indene]-4-carboxylic acid] |
